{"source": "patent US7101849B1", "about": "(The University of Queensland, priority 1998, dated 2006)", "biological_target": "N-type calcium channel (Rattus norvegicus, UniProt Q02294)", "sequence (Q02294 whole entry, looked up)": "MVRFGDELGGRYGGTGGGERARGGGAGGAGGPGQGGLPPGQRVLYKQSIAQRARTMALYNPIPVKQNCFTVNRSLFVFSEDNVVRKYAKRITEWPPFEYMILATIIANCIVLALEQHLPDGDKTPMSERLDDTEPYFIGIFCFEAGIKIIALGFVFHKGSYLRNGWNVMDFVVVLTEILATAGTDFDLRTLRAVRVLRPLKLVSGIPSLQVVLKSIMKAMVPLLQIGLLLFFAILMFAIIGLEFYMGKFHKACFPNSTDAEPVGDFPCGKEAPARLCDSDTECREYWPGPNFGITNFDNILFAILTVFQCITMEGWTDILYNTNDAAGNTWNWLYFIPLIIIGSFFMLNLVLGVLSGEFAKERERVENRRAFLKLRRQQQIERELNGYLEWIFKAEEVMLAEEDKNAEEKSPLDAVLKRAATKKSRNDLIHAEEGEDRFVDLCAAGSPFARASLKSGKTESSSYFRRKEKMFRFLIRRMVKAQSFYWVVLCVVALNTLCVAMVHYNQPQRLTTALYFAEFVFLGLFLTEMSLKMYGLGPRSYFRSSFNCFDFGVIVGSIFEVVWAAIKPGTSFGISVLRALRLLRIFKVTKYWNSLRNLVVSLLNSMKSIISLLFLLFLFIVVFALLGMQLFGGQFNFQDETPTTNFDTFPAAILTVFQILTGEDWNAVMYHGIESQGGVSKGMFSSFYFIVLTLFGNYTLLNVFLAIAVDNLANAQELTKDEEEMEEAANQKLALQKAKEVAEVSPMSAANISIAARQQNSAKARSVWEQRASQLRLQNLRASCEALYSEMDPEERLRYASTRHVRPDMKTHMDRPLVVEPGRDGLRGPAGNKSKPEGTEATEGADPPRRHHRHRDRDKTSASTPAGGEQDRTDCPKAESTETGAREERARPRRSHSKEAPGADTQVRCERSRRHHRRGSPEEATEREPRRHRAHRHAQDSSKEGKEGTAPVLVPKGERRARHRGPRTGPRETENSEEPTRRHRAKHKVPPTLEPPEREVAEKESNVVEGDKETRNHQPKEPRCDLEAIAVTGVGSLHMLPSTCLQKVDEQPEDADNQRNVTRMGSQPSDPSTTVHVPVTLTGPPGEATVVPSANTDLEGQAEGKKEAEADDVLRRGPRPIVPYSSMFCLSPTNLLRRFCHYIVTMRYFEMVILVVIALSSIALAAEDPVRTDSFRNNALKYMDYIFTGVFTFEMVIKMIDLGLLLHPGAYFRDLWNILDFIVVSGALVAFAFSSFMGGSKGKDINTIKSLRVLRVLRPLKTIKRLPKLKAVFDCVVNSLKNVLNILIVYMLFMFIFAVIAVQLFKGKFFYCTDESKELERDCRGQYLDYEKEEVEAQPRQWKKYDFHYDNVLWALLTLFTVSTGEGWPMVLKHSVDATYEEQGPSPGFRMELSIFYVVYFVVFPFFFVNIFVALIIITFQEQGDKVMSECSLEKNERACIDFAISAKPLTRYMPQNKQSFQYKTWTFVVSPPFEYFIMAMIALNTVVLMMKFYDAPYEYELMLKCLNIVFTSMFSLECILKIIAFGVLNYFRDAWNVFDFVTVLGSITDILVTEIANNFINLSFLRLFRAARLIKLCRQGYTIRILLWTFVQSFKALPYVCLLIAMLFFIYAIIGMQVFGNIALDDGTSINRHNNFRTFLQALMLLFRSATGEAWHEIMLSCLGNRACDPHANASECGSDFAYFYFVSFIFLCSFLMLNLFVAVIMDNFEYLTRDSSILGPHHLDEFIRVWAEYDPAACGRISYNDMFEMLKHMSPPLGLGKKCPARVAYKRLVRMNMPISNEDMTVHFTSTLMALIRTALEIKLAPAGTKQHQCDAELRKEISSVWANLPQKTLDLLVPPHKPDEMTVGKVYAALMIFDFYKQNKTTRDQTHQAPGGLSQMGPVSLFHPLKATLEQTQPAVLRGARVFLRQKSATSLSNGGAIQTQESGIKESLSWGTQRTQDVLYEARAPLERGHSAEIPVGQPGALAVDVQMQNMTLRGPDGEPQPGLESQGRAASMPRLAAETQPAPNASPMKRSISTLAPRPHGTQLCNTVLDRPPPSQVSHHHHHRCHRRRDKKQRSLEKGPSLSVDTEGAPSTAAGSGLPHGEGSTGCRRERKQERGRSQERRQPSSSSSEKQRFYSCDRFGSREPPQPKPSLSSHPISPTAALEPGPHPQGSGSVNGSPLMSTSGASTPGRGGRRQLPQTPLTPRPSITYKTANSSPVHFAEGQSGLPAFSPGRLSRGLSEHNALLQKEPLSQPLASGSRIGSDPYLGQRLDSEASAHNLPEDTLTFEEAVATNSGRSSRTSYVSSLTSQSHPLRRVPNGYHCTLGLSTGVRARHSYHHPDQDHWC", "assay_type": "binding"}
{"sequence": "CKSKGAKCDRLMYDCCSGSCSGTVGRC [D^9R^10-CVID]", "values": [{"measurement": "potency for N-type calcium channel in receptor binding assays", "result": "high potency"}, {"measurement": "selectivity for N-type calcium channel over P/Q-type calcium channel in receptor binding assays", "result": "high selectivity"}]}
